The results in this text go back to patent publication US20250152605A1, “METHOD AND DRUG FOR TREATING NEURONAL CEROID LIPOFUSCINOSIS” (priority 2021, published 2025).

Data set [1] relates to p62 protein. The data set is described as follows: p62 protein blotting with Baf-A1 (autophagic flux) in human neurons. Type of data set: cell-based. The procedure: Sample preparation: for adherent cultured cells, exemplified by cells cultured in a six-well cell plate, the cell medium was aspirated and the cells were washed once with dPBS. About 100 μL of RIPA lysate (50 mM Tris-HCl, pH 7.5, 150 mM NaCl, 0.25% Na-deoxycholate, 0.1% NP-40, 0.1% Triton X-100) containing protease inhibitors and phosphatase inhibitors was added to each well. The cell lysate was scraped off completely with a cell scraper and collected into 1.5 mL EP tubes. Lysis was continued for 30 minutes on ice. For animal tissue, the weight of the animal tissue was weighed, and RIPA lysate containing protease inhibitors and phosphatase inhibitors was added with five times the volume of the animal tissue. The tissue was grinded on ice with a tissue grinder until there is no obvious tissue mass, collected into 1.5 mL EP tubes, and placed on ice for further lysis for 30 min. […]

Data set [2] relates to CLN3^Δex7/8 human neural stem cells. As to the kind of experiment: qRT-PCR of autophagy-related and lysosomal genes in human neural stem cells. The settings on record: 6 hours. Type of data set: cell-based. The procedure: (§1) The cells in the cell-culture dish were collected, extracted using AxyPrep Total RNA Mini Prep Kit or Qiagen AxyPrep Total RNA Mini Prep Kit, and the extracted RNA concentration is measured using Nanodrop; the extracted mRNA was reverse transcribed into cDNA by Transgen's EasyScript® One-Step gDNA Removal and cDNA Synthesis SuperMix and the primers used for reverse transcription were Oligo dT primers; the completion of reverse transcription followed by qRT-PCR reaction through PerfectStart™ Green qPCR SuperMix to detect the expression of the target gene; the qRT-PCR reaction was performed on the Bio-Rad CFX96 Real-Time PCR system; see Table 2 and Table 3 for the 20 μL qRT-PCR reaction system and reaction procedures; data analysis was performed in Prism 7 software using the 2^−ΔΔCt process with GAPDH as internal reference for relative quantification of the expression of the target gene.
The effect of Compound G on the transcription level of the autophagy-related genes and the lysosomal genes was further detected in the induced CLN3^Δex7/8 human neural stem cells and neurons.
A general note: In qPCR the cycle at which signal appears reflects the starting amount.

The test system of data set [3] is p62. As to the kind of experiment: p62 transcription (qRT-PCR) and p62 protein level in human neurons. Type of data set: cell-based. As to the method: as §1
FIG. 41: Compound G increased intracellular p62 protein levels. (a) 24 hours after treatment of human neurons with Compound G or after KEAP1 knockdown, transcriptional levels of the p62 gene were detected by qRT-PCR (n=3). (b) 24 hours after treatment of human neurons with Compound G or after KEAP1 knockdown, intracellular p62 protein levels were detected by Western blotting and band intensity statistics (n=3) were performed. […]

In data set [4] the test system is CLN3^Δex7/8 neural stem cells. As to the kind of experiment: Annexin V and propidium iodide apoptosis staining, flow cytometry. Type of data set: cell-based, human. The settings on record: treatment for 48 hours. As to the method:
In analyzing the mean fluorescence intensity of neural stem cells and neuronal staining or single cell establishment of NRK cells, flow cytometry was used: the cell medium was aspirated off, after wash with dPBS once, the digestive enzyme corresponding to the cell type was added to digest into single cells; the supernatant was removed by centrifugation, and the cells were resuspended with 1 mL of fresh medium; the cell suspension with filtered through 40 μm filter membrane and the single cell filtrate was collected; the single cell filtrate was transferred to a flow tube and analyzed or sorted using BD FACS Aria III; in the analysis, the fluorescence intensity of 1×10^4 cells for each sample was analyzed to obtain the mean fluorescence intensity (MFI); for sorting, cells were received in 96 well plates with medium, one cell per well to establish a cell line.
Then, whether compound G causes cytotoxicity in neural stem cells was examined. Cell apoptosis was detected after compound G treatment with Annexin V and propidium iodide (PI) staining and analyzed with flow cytometry. Annexin V positive and PI negative represented early apoptotic cells, while Annexin V positive and PI positive represented late apoptotic cells.

For the compound `C/C=C1\C(=O)C[C@H]2[C@@H]3CCC4=CC(=O)CC[C@]4(C)[C@H]3CC[C@]12C` [Compound G, (Z)-guggulsterone], the “increases of p62 protein after adding Baf-A1 (autophagic flux)” value in data set [1] (CLN3^Δex7/8 human neurons) was “higher increases of p62 protein”. Also, the “intracellular protein level of p62” value in data set [1] (under the condition of adding Baf-A1) was “still significantly increase”. For the same compound, the “transcription level of the autophagy-related genes or the lysosomal genes” value in data set [2] is given as “did not significantly increase”. Further, the p62 protein level entry in data set [3] (24 hours, Western blotting) is reported as “increase the p62 protein level”. The “transcription level of p62” value in data set [3] (incubation for 24 hours, qRT-PCR) is recorded as “significantly increase”. The “proportions of apoptotic cells (Annexin V / PI)” value in data set [4] is “did not significantly change the proportions of apoptotic cells”.
